The values below come from patent US20230081426A1, “COMPOUNDS AND METHODS FOR KRAS MODULATION AND INDICATIONS THEREFOR” (Plexxikon Inc., priority 2020, published 2023).

In experiment [1] the target is T1, G12D-mutant human KRAS (amino acid residues 1-188) (Homo sapiens, UniProt P01116, G12D).
T1 construct: G12D or G12C-mutant human KRAS (amino acid residues 1-188) with FLAG tag; made in house; host or cells: E. coli
Put plainly: KRAS Binding Disruption Assay (AlphaScreen; biotinylated KRpep-2d analogue or RAF1-RBD), G12D. The conditions noted are these: KRAS G12D; geometric mean; read-out: KRAS GMean IC50 (uM) MUTATION: G12D. The essentials: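 Mutant KRAS (5-20 nM) incubated 1 h at 25° C with test compound and 5-20 nM biotinylated KRpep-2d analogue or RAF1-RBD in 20 mM HEPES pH 7.5, 100 mM NaCl, 5 mM MgCl2, 0.01% Tween-20, 0.01% BSA.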

Experiment [2] has as its target T2, G12V-mutant human KRAS (amino acid residues 1-188) (Homo sapiens, UniProt P01116, G12V).
T2 construct: G12V-mutant human KRAS (amino acid residues 1-188) with FLAG tag was purified from E. coli; made in house; host or cells: E. coli
Put plainly: KRAS Binding Competition Assay (AlphaScreen; biotinylated KRpep-2d analogue), G12V. The conditions noted are these: geometric mean, read-out: KRAS GMean IC50 (uM) MUTATION: G12V.

On to `CN1CCC[C@H]1COc1nc(N2[C@@H]3CC[C@H]2CN(C(=O)NCc2ccccn2)C3)c2ccc(-c3cc(O)cc4ccccc34)cc2n1` [P-0216, (1R,5S)-8-(7-(3-hydroxynaphthalen-1-yl)-2-(((S)-1-methylpyrrolidin-2-yl)methoxy)quinazolin-4-yl)-N-(pyridin-2-ylmethyl)-3,8-diazabicyclo[3.2.1]octane-3-carboxamide], for which the IC50 in experiment [1] and in experiment [2] was 10 to 100 µM in each case.

For the compound `CN1CCC[C@H]1COc1nc(N2[C@@H]3CC[C@H]2CN(C(=O)C(N)=O)C3)c2ccc(-c3cc(O)cc4ccccc34)cc2n1` [P-0217, 2-((1R,5S)-8-(7-(3-hydroxynaphthalen-1-yl)-2-(((S)-1-methylpyrrolidin-2-yl)methoxy)quinazolin-4-yl)-3,8-diazabicyclo[3.2.1]octan-3-yl)-2-oxoacetamide], the IC50 in experiment [1] and in experiment [2] was 10 to 100 µM in each case.

Take `CN1CCC[C@H]1COc1nc(N2[C@@H]3CC[C@H]2CN(C(=O)CCC(N)=O)C3)c2ccc(-c3cc(O)cc4ccccc34)cc2n1` [P-0218, 4-((1R,5S)-8-(7-(3-hydroxynaphthalen-1-yl)-2-(((S)-1-methylpyrrolidin-2-yl)methoxy)quinazolin-4-yl)-3,8-diazabicyclo[3.2.1]octan-3-yl)-4-oxobutanamide]: the IC50 in experiment [1] and in experiment [2] was 10 to 100 µM each time.

Take `CN1CCC[C@H]1COc1nc(N2[C@@H]3CC[C@H]2CN(C(=O)C(O)CO)C3)c2ccc(-c3cc(O)cc4ccccc34)cc2n1` (stereo partly drawn) [P-0219, 2,3-dihydroxy-1-((1R,5S)-8-(7-(3-hydroxynaphthalen-1-yl)-2-(((S)-1-methylpyrrolidin-2-yl)methoxy)quinazolin-4-yl)-3,8-diazabicyclo[3.2.1]octan-3-yl)propan-1-one]: the IC50 in experiment [1] and in experiment [2] was 10 to 100 µM each time.

Take `C[C@@H](O)C(=O)N1C[C@H]2CC[C@@H](C1)N2c1nc(OC[C@@H]2CCCN2C)nc2cc(-c3cc(O)cc4ccccc34)ccc12` [P-0220, (R)-2-hydroxy-1-((1R,5S)-8-(7-(3-hydroxynaphthalen-1-yl)-2-(((S)-1-methylpyrrolidin-2-yl)methoxy)quinazolin-4-yl)-3,8-diazabicyclo[3.2.1]octan-3-yl)propan-1-one]: the values for the IC50 in experiment [1] and in experiment [2] were 10 to 100 µM and 100 to 1000 µM, respectively.

As for `C[C@H](O)C(=O)N1C[C@H]2CC[C@@H](C1)N2c1nc(OC[C@@H]2CCCN2C)nc2cc(-c3cc(O)cc4ccccc34)ccc12` [P-0221, (S)-2-hydroxy-1-((1R,5S)-8-(7-(3-hydroxynaphthalen-1-yl)-2-(((S)-1-methylpyrrolidin-2-yl)methoxy)quinazolin-4-yl)-3,8-diazabicyclo[3.2.1]octan-3-yl)propan-1-one], the IC50 in experiment [1] and in experiment [2] was 10 to 100 µM in each case.

`CN1CCC[C@H]1COc1nc(N2[C@@H]3CC[C@H]2CN(C(=O)C2CCC(=O)N2)C3)c2ccc(-c3cc(O)cc4ccccc34)cc2n1` (stereo partly drawn) [P-0222, 5-((1R,5S)-8-(7-(3-hydroxynaphthalen-1-yl)-2-(((S)-1-methylpyrrolidin-2-yl)methoxy)quinazolin-4-yl)-3,8-diazabicyclo[3.2.1]octane-3-carbonyl)pyrrolidin-2-one]: the IC50 in experiment [1] is 10 to 100 µM; in experiment [2], 100 to 1000 µM.

Take `CN1CCC[C@H]1COc1nc(N2[C@@H]3CC[C@H]2CN(C(=O)[C@@H](N)CO)C3)c2ccc(-c3cc(O)cc4ccccc34)cc2n1` [P-0223, (S)-2-amino-3-hydroxy-1-((1R,5S)-8-(7-(3-hydroxynaphthalen-1-yl)-2-(((S)-1-methylpyrrolidin-2-yl)methoxy)quinazolin-4-yl)-3,8-diazabicyclo[3.2.1]octan-3-yl)propan-1-one]: the IC50 in experiment [1] and in experiment [2] was 10 to 100 µM throughout.

Turning to `CN1CCC[C@H]1COc1nc(N2[C@@H]3CC[C@H]2CN(C(=O)c2ncc[nH]2)C3)c2ccc(-c3cc(O)cc4ccccc34)cc2n1` [P-0224, ((1R,5S)-8-(7-(3-hydroxynaphthalen-1-yl)-2-(((S)-1-methylpyrrolidin-2-yl)methoxy)quinazolin-4-yl)-3,8-diazabicyclo[3.2.1]octan-3-yl)(1H-imidazol-2-yl)methanone], the IC50 in experiment [1] lay in the range of 10 to 100 µM; in experiment [2], 0.0001 to 10 µM.

For `CN1CCC[C@H]1COc1nc(N2[C@@H]3CC[C@H]2CN(CC(=O)Nc2ccccn2)C3)c2ccc(-c3cc(O)cc4ccccc34)cc2n1` [P-0225, 2-((1R,5S)-8-(7-(3-hydroxynaphthalen-1-yl)-2-(((S)-1-methylpyrrolidin-2-yl)methoxy)quinazolin-4-yl)-3,8-diazabicyclo[3.2.1]octan-3-yl)-N-(pyridin-2-yl)acetamide], the IC50 in experiment [1] and in experiment [2] was 10 to 100 µM throughout.

Take `CN1CCC[C@H]1COc1nc(N2[C@@H]3CC[C@H]2CN(C2CNC2)C3)c2ccc(-c3cc(O)cc4ccccc34)cc2n1` [P-0226, 4-(4-((1R,5S)-3-(azetidin-3-yl)-3,8-diazabicyclo[3.2.1]octan-8-yl)-2-(((S)-1-methylpyrrolidin-2-yl)methoxy)quinazolin-7-yl)naphthalen-2-ol]: the IC50 in experiment [1] and in experiment [2] was 100 to 1000 µM throughout.

As to `CN1CCC[C@H]1COc1nc(N2[C@@H]3CC[C@H]2CN(C(=O)CC(N)=O)C3)c2ccc(-c3cc(O)cc4ccccc34)cc2n1` [P-0227, 3-((1R,5S)-8-(7-(3-hydroxynaphthalen-1-yl)-2-(((S)-1-methylpyrrolidin-2-yl)methoxy)quinazolin-4-yl)-3,8-diazabicyclo[3.2.1]octan-3-yl)-3-oxopropanamide], the IC50 was in the range of 10 to 100 µM in experiment [1] and 100 to 1000 µM in experiment [2].

`CN1CCC[C@H]1COc1nc(N2[C@@H]3CC[C@H]2CN(C(=O)Cc2cnn(C)c2)C3)c2ccc(-c3cc(O)cc4ccccc34)cc2n1` [P-0228, 1-((1R,5S)-8-(7-(3-hydroxynaphthalen-1-yl)-2-(((S)-1-methylpyrrolidin-2-yl)methoxy)quinazolin-4-yl)-3,8-diazabicyclo[3.2.1]octan-3-yl)-2-(1-methyl-1H-pyrazol-4-yl)ethan-1-one]: the IC50 lay within 10 to 100 µM in experiment [1] and 100 to 1000 µM in experiment [2].

As for `CN1CCC[C@H]1COc1nc(N2[C@@H]3CC[C@H]2CN(C(=O)C(=O)Nc2ccccn2)C3)c2ccc(-c3cc(O)cc4ccccc34)cc2n1` [P-0229, 2-((1R,5S)-8-(7-(3-hydroxynaphthalen-1-yl)-2-(((S)-1-methylpyrrolidin-2-yl)methoxy)quinazolin-4-yl)-3,8-diazabicyclo[3.2.1]octan-3-yl)-2-oxo-N-(pyridin-2-yl)acetamide], the IC50 in experiment [1] and in experiment [2] was 10 to 100 µM in each case.

As for `CN1CCC[C@H]1COc1nc(N2[C@@H]3CC[C@H]2CN(C(=O)c2ncn[nH]2)C3)c2ccc(-c3cc(O)cc4ccccc34)cc2n1` [P-0230, ((1R,5S)-8-(7-(3-hydroxynaphthalen-1-yl)-2-(((S)-1-methylpyrrolidin-2-yl)methoxy)quinazolin-4-yl)-3,8-diazabicyclo[3.2.1]octan-3-yl)(1H-1,2,4-triazol-5-yl)methanone], the IC50 in experiment [1] and in experiment [2] was 10 to 100 µM in each case.

For `CN1CCC[C@H]1COc1nc(N2[C@@H]3CC[C@H]2CN(C(=N)N)C3)c2ccc(-c3cc(O)cc4ccccc34)cc2n1` [P-0231, (1R,5S)-8-(7-(3-hydroxynaphthalen-1-yl)-2-(((S)-1-methylpyrrolidin-2-yl)methoxy)quinazolin-4-yl)-3,8-diazabicyclo[3.2.1]octane-3-carboximidamide], the IC50 in experiment [1] and in experiment [2] was 10 to 100 µM throughout.
